In brackets after ≈: the same amount, converted by molar mass.
Legend:
[1] = Lipophilicity, log P of compound by RP-HPLC analysis; format: physicochemical
[2] = tested on: Staphylococcus epidermidis; assay: Antimicrobial activity against Staphylococcus epidermidis H 6966/08 after 48 hrs by broth microdilution method; format: functional; settings: H 6966/08, 48 h
[3] = tested on: Staphylococcus epidermidis; assay: Antimicrobial activity against Staphylococcus epidermidis H 6966/08 after 24 hrs by broth microdilution method; format: functional; settings: H 6966/08, 24 h
Lichtheimia corymbifera [4] = assay: Antimicrobial activity against Absidia corymbifera 272 after 24 hrs by broth microdilution test; format: functional; settings: Lichtheimia corymbifera, 272, 24 h
Staphylococcus aureus [5] = assay: Antimicrobial activity against Staphylococcus aureus CCM 4516/08 after 48 hrs by broth microdilution method; format: functional; settings: CCM 4516/08, 48 h
Candida albicans [6] = assay: Antimicrobial activity against Candida albicans ATCC 44859 after 24 hrs by broth microdilution test; format: functional; settings: ATCC 44859, 24 h
Trichosporon beigelii [7] = assay: Antimicrobial activity against Trichosporon beigelii 1188 after 24 hrs by broth microdilution test; format: functional; settings: Trichosporon beigelii, 1188, 24 h
Nakaseomyces glabratus [8] = assay: Antimicrobial activity against Candida glabrata 20/I after 24 hrs by broth microdilution test; format: functional
Aspergillus fumigatus [9] = assay: Antimicrobial activity against Aspergillus fumigatus 231 after 24 hrs by broth microdilution test; format: functional; settings: Aspergillus fumigatus, 231, 24 h
[10] = tested on: Trichophyton mentagrophytes; assay: Antimicrobial activity against Trichophyton mentagrophytes 445 after 72 hrs by broth microdilution test; format: functional; settings: Trichophyton mentagrophytes, 445, 72 h
Staphylococcus aureus [11] = assay: Antimicrobial activity against methicillin-resistant Staphylococcus aureus H 5996/08 after 48 hrs by broth microdilution method; format: functional; settings: H 5996/08, 48 h
Pichia kudriavzevii [12] = assay: Antimicrobial activity against Candida krusei ATCC 6258 after 24 hrs by broth microdilution test; format: functional; settings: ATCC 6258, 24 h
Staphylococcus aureus [13] = assay: Antimicrobial activity against methicillin-resistant Staphylococcus aureus H 5996/08 after 24 hrs by broth microdilution method; format: functional; settings: H 5996/08, 24 h
Candida tropicalis [14] = assay: Antimicrobial activity against Candida tropicalis 156 after 24 hrs by broth microdilution test; format: functional; settings: Candida tropicalis, 156, 24 h
Staphylococcus aureus [15] = assay: Antimicrobial activity against Staphylococcus aureus CCM 4516/08 after 24 hrs by broth microdilution method; format: functional; settings: CCM 4516/08, 24 h
Pichia kudriavzevii [16] = assay: Antimicrobial activity against Candida krusei ATCC 6258 after 48 hrs by broth microdilution test; format: functional; settings: ATCC 6258, 48 h
[17] = tested on: Trichophyton mentagrophytes; assay: Antimicrobial activity against Trichophyton mentagrophytes 445 after 120 hrs by broth microdilution test; format: functional; settings: Trichophyton mentagrophytes, 445, 120 h
Lichtheimia corymbifera [18] = assay: Antimicrobial activity against Absidia corymbifera 272 after 48 hrs by broth microdilution test; format: functional; settings: Lichtheimia corymbifera, 272, 48 h
Aspergillus fumigatus [19] = assay: Antimicrobial activity against Aspergillus fumigatus 231 after 48 hrs by broth microdilution test; format: functional; settings: Aspergillus fumigatus, 231, 48 h
Candida tropicalis [20] = assay: Antimicrobial activity against Candida tropicalis 156 after 48 hrs by broth microdilution test; format: functional; settings: Candida tropicalis, 156, 48 h
Candida albicans [21] = assay: Antimicrobial activity against Candida albicans ATCC 44859 after 48 hrs by broth microdilution test; format: functional; settings: ATCC 44859, 48 h
Trichosporon beigelii [22] = assay: Antimicrobial activity against Trichosporon beigelii 1188 after 48 hrs by broth microdilution test; format: functional; settings: Trichosporon beigelii, 1188, 48 h
Nakaseomyces glabratus [23] = assay: Antimicrobial activity against Candida glabrata 20/I after 48 hrs by broth microdilution test; format: functional

Row | Structure (SMILES) | logP [1] | MIC90 [2] [µM] | MIC90 [3] [µM] | MIC50 (Lichtheimia corymbifera [4]) [µM] | MIC90 (Staphylococcus aureus [5]) [µM] | MIC80 (Candida albicans [6]) [µM] | MIC80 (Trichosporon beigelii [7]) [µM] | MIC80 (Nakaseomyces glabratus [8]) [µM] | MIC50 (Aspergillus fumigatus [9]) [µM] | MIC50 [10] [µM] | MIC90 (Staphylococcus aureus [11]) [µM] | MIC80 (Pichia kudriavzevii [12]) [µM] | MIC90 (Staphylococcus aureus [13]) [µM] | MIC80 (Candida tropicalis [14]) [µM] | MIC90 (Staphylococcus aureus [15]) [µM] | also measured
1 | Oc1ccccc1/C=C/c1ccc2ccccc2n1 | 4.34 | > 250 | > 500 | > 125 | > 250 | > 125 | > 125 | > 125 | > 125 | > 125 | > 250 | > 125 | > 250 | > 125 | > 250 | 
2 | Oc1cccc2ccc(/C=C/c3ccccc3Cl)nc12 | 4.9 | > 500 | > 500 | > 500 | > 500 | > 500 | > 500 | > 500 | > 500 | > 500 | > 500 | > 500 | > 500 | > 500 | > 500 | 
3 | Clc1ccccc1/C=C/c1ccc2ccccc2n1 | 5.25 | > 500 | > 500 | > 500 | > 500 | > 500 | > 500 | > 500 | > 500 | > 500 | > 500 | > 500 | > 500 | > 500 | > 500 | 
4 | CCOc1ccc(/C=C/c2ccc3ccccc3n2)cc1 | 4.61 | > 500 | > 500 | > 500 | > 500 | > 500 | > 500 | > 500 | > 500 | > 500 | > 500 | > 500 | > 500 | > 500 | > 500 | 
5 | Clc1ccccc1/C=C/c1ccc2cccc(Cl)c2n1 | 5.85 | > 500 | > 500 | > 500 | > 500 | > 500 | > 500 | > 500 | > 500 | > 500 | > 500 | > 500 | > 500 | > 500 | > 500 | 
6 | Oc1ccc(/C=C/c2ccc3cccc(O)c3n2)c(O)c1 | 3.56 | 250 (≈ 69.8 µg/mL) | 125 (≈ 34.9 µg/mL) | > 125 | 31.2 (≈ 8.73 µg/mL) | 125 (≈ 34.9 µg/mL) | 62.5 (≈ 17.5 µg/mL) | 62.5 (≈ 17.5 µg/mL) | 125 (≈ 34.9 µg/mL) | 31.2 (≈ 8.73 µg/mL) | 62.5 (≈ 17.5 µg/mL) | 62.5 (≈ 17.5 µg/mL) | 31.2 (≈ 8.73 µg/mL) | > 125 | 15.6 (≈ 4.36 µg/mL) | MIC80 (Pichia kudriavzevii [16]): 125 µM (≈ 34.9 µg/mL); MIC50 [17]: 62.5 µM (≈ 17.5 µg/mL); MIC50 (Lichtheimia corymbifera [18]): > 125 µM; MIC50 (Aspergillus fumigatus [19]): 125 µM (≈ 34.9 µg/mL); MIC80 (Candida tropicalis [20]): > 125 µM; MIC80 (Candida albicans [21]): > 125 µM; MIC80 (Trichosporon beigelii [22]): 125 µM (≈ 34.9 µg/mL); MIC80 (Nakaseomyces glabratus [23]): 125 µM (≈ 34.9 µg/mL)
7 | CCOc1ccccc1/C=C/c1ccc2cccc(O)c2n1 | 4.55 | > 500 | > 500 | > 500 | > 500 | > 500 | > 500 | > 500 | > 500 | > 500 | > 500 | > 500 | > 500 | > 500 | > 500 | 
8 | CCOc1ccc(/C=C/c2ccc3cccc(O)c3n2)cc1 | 4.55 | > 500 | > 500 | > 500 | > 500 | > 500 | > 250 | > 250 | > 500 | > 500 | > 500 | > 500 | > 500 | > 500 | > 500 | 
9 | Oc1c(Cl)cc(Cl)c2ccc(/C=C/c3ccccc3Cl)nc12 | 6.02 |  |  |  |  |  |  |  |  |  |  |  |  |  |  | 
10 | Oc1ccccc1/C=C/c1ccc2c(Cl)cc(Cl)c(O)c2n1 | 5.07 |  |  |  |  |  |  |  |  |  |  |  |  |  |  | 
